Reference: patent publication US20230146455A1, “TREATMENT OF INFLAMMATORY DISEASES WITH PEPTIDES AND PHARMACEUTICAL COMPOSITIONS” (Yuyu Pharma, Inc., priority 2020, published 2023)
In brackets after ≈: the same amount, converted by molar mass. Entries after “also recorded” stand apart in the source; their conditions may differ. Read-outs that look alike come from different tables or passages of the source. Where a SMILES comes first, the peptide text is derived from it. [ ]: non-standard residue; d: D form. The star is where a group is joined. Pyrrolidin1yl(2S-Ac) = CC(=O)[C@@H]1CCCN1*; Hyp = O=C(O)[C@@H]1C[C@@H](O)CN1; NH(CH2)2O(CH2)2NH2 = NCCOCCN*; Pyrrolidide = C1CCN(*)C1; X1 = CCN(C(C)C)*; NMeEt = CCN(C)*

Columns and labels:
[1] = Apparent permeability, 21 day cultured Caco-2 cell monolayer, bi-directional (Example 7); format: in vitro ADME; conditions: human; for recovery at 120 min, 2 μM: Caco-2, 2 μM
Description: (§1) 10 mM stock solution of test compound was prepared in DMSO. 10 mM stock was diluted with 100% DMSO to prepare 0.2 mM, 0.2 mM stock was diluted with HBSS buffer to a final concentration of 2 μM.
(§2) Add 250 μL of DMEM to the basal compartment of 96 well multi-screen Caco-2 plates and seed 12000 cells/well (0.16×10^6 cells/ml) in all the apical wells required and 2 wells with only media as blank without cells. Place the Caco-2 plate in CO2 incubator at 37° C. for proliferation of cells.
(§3) The utilized media was replenished every alternate day by fresh medium. On 21st day, utilized medium was removed and washed twice with HBSS Buffer and incubated with HBSS buffer 30 min in incubator and initiated the assay.
(§4) 75 μL of test compound was added to apical wells and 250 μL of HBSS buffer with 1% DMSO was added to basal wells. Samples were collected at 120 min and processed as stated below.
(§5) 250 μL of test compound was added to basal wells and 75 μL of HBSS buffer with 1% DMSO was added to apical wells. Samples were collected at 120 min and processed as stated below.
(§6) Single point calibration curve in HBSS buffer was used. 100 μL of supernatant was diluted with 200 μL of water and submitted for LC-MS/MS analysis.
(§7) Efflux ratio=Papp of basal to apical samples/Papp of apical to basal samples
(§8) Recovery: {(dQ of Apical+dQ of Basal)/Standard dQ}*100

Caco-2 cells monolayer = assay: as above; format: in vitro ADME
Description: as §1, §2, §3, §4, §5, §6, §7, §8

[2] = system: IL-6 cytokine release in poly I:C stimulated primary human corneal epithelial cells; assay: Soluble IL-6 cytokine release in poly I:C stimulated primary human corneal epithelial cells by ELISA (Example 2); format: cell-based; conditions: 25 μg/mL poly I:C, 24 hours; for Poly I:C induced IL-6 cytokine release (in words): 30, 10, 1, 0.1, 0.01, 0.001 μM
Description: Assay protocol as shown below was used to determine the significant effect of test compounds. The data was statistically analyzed by one-way ANOVA with a Bonferroni post test comparing all the columns. The significance was represented by the p value.
Selected YDE peptides (YDE-093, -096, -100, -101, -102, -103, -104, -105, -106 and -107) were evaluated by assessing the soluble IL-6 cytokine release in poly I:C stimulated primary human corneal epithelial cells by ELISA (Biolegend, 430504).
Specifically, primary corneal epithelial cells (ATCC, ATCC PCS-700-010) were seeded on a 6-well culture plate containing the Corneal Epithelial Cell Basal Medium (ATCC, ATCC PCS-700-030) in the Corneal Epithelial Cell Growth Kit (ATCC, ATCC PCS-700-040) in an amount of 1.2×10^5 cells per well, which was then cultured for 24 hours under the conditions of 37° C. and 5% CO2. Then, cells were washed with 1×PBS and replaced with serum free medium which was then cultured for 2 hours under the conditions of 37° C. and 5% CO2.
After 2 hours, cells were treated with compounds at 6 differential concentrations (Hinokitiol/YDE peptides at 30, 10, 1, 0.1, 0.01, and 0.001 μM) with the DMSO final 0.5% and then cultured for 1 hour under the conditions of 37° C. and 5% CO2.
After 1 hour, cells were further treated with 25 μg/mL of poly I:C and cultured for 24 hours under the conditions of 37° C. and 5% CO2.
Following incubation, the supernatant was collected for IL-6 levels was assessed by Sandwich ELISA (Enzyme-linked immunosorbent assay) following manufacturer's instructions. The data was statistically analyzed by one-way ANOVA with a Bonferroni post-test comparing all the columns. The significance was represented by the p value.

[3] = system: IL-6 cytokine release in poly I:C stimulated primary human corneal epithelial cells; assay: Soluble IL-6 cytokine release in poly I:C stimulated primary human corneal epithelial cells by ELISA (Example 6); format: cell-based
Text: To determine the effect of compound by assessing the soluble IL-6 cytokine release in poly I:C stimulated primary human corneal epithelial cells by ELISA. • Test System: Primary Human Corneal Epithelial cells • Assay Format: 96-well plate format • Method of Detection: Enzyme-linked immunosorbent assay • Assay Controls: Hinokitiol Assay protocol as shown below was used to determine the significant effect of test compounds. The data was statistically analyzed by one-way ANOVA with a Bonferroni post test comparing all the columns. The significance was represented by the p value.

[4] = Solubility (in water; in saline); format: physicochemical; conditions: for solubility: water

Row | Solubility in Water [4] | solubility [4] | Compound | Poly I:C induced IL-6 cytokine release (in words) [2] | tested concentrations with significant attenuation of IL-6 cytokine release [2] | other results
1 | 10000 µg/mL (≈ 11.7 mM) |  | CC(C)C[C@H](NC(=O)CNC(=O)[C@H](CC(C)C)NC(=O)[C@H](CCC(N)=O)NC(=O)CNC(=O)[C@@H]1C[C@@H](O)CN1)C(=O)N[C@@H](C)C(=O)NCC(=O)N1CCC[C@H]1C(=O)N(C)C [YDE-101] (H-[Hyp]GQLGLAGP-NMe2) | attenuation of IL-6 release | 30 μM, 10 μM, and 1 μM | Poly I:C induced IL-6 cytokine release (in words) ([2]; listed as YDE101): attenuate Poly I:C induced IL-6 cytokine release in a dose dependent manner
2 | 10000 µg/mL (≈ 11.7 mM) |  | CCNC(=O)[C@@H]1CCCN1C(=O)CNC(=O)[C@H](C)NC(=O)[C@H](CC(C)C)NC(=O)CNC(=O)[C@H](CC(C)C)NC(=O)[C@H](CCC(N)=O)NC(=O)CNC(=O)[C@@H]1C[C@@H](O)CN1 [YDE-102] (H-[Hyp]GQLGLAGP-NHEt) | attenuation of IL-6 release | 30 μM, 10 μM, and 1 μM | Poly I:C induced IL-6 cytokine release (in words) ([2]; listed as YDE102): attenuate Poly I:C induced IL-6 cytokine release in a dose dependent manner
3 |  | 10000 µg/mL (≈ 11.5 mM) | CCN(C)C(=O)[C@@H]1CCCN1C(=O)CNC(=O)[C@H](C)NC(=O)[C@H](CC(C)C)NC(=O)CNC(=O)[C@H](CC(C)C)NC(=O)[C@H](CCC(N)=O)NC(=O)CNC(=O)[C@@H]1C[C@@H](O)CN1 [YDE-105] (H-[Hyp]GQLGLAGP-NMeEt) |  |  | tested concentrations with significant attenuation of IL-6 cytokine release ([2]; listed as YDE105): 30 μM, 10 μM, and 1 μM; Poly I:C induced IL-6 cytokine release (in words) ([2]; listed as YDE105): attenuate Poly I:C induced IL-6 cytokine release in a dose dependent manner
4 | 10000 µg/mL (≈ 11.4 mM) |  | CC(C)C[C@H](NC(=O)CNC(=O)[C@H](CC(C)C)NC(=O)[C@H](CCC(N)=O)NC(=O)CNC(=O)[C@@H]1C[C@@H](O)CN1)C(=O)N[C@@H](C)C(=O)NCC(=O)N1CCC[C@H]1C(=O)N1CCCC1 [YDE-106] (H-[Hyp]GQLGLAGP-Pyrrolidide) | attenuation of IL-6 release | 30 μM, 10 μM, and 1 μM | Poly I:C induced IL-6 cytokine release (in words) ([2]; listed as YDE106): attenuate Poly I:C induced IL-6 cytokine release in a dose dependent manner
5 |  | 10000 µg/mL (≈ 11.2 mM) | CCN(C(=O)[C@@H]1CCCN1C(=O)CNC(=O)[C@H](C)NC(=O)[C@H](CC(C)C)NC(=O)CNC(=O)[C@H](CC(C)C)NC(=O)[C@H](CCC(N)=O)NC(=O)CNC(=O)[C@@H]1C[C@@H](O)CN1)C(C)C [YDE-107] (H-[Hyp]GQLGLAGP-X1) | attenuation of IL-6 release | 30 μM, 10 μM, and 1 μM | Poly I:C induced IL-6 cytokine release (in words) ([2]; listed as YDE107): attenuate Poly I:C induced IL-6 cytokine release in a dose dependent manner

The remaining lines, values behind:

Row | Compound | Solubility in Water [4] | solubility [4] | Poly I:C induced IL-6 cytokine release (in words) [2] | tested concentrations with significant attenuation of IL-6 cytokine release [2] | other results
6 | CC(C)NCC(O)COc1cccc2ccccc12 (centres unmarked) [Propranolol, reference compound] |  |  |  |  | recovery at 120 min, 2 μM ([1]; 120 minutes, read-out: A to B % Recovery): 80.1%; recovery at 120 min, 2 μM ([1]; 120 minutes, read-out: B to A % Recovery): 90.3%; Papp A→B at 120 min, 2 μM ([1]; Caco-2, 2 μM, 120 minutes, average values, read-out: Papp Apical to Basal): 23.8 ×10⁻⁶ cm/s; Papp B→A at 120 min, 2 μM ([1]; Caco-2, 2 μM, 120 minutes, average values, read-out: Papp Basal to Apical): 37.1 ×10⁻⁶ cm/s; efflux ratio at 120 min, 2 μM ([1]; Caco-2, Papp B-A / Papp A-B): 1.56; Classification (Caco-2 Permeability) (Caco-2 cells monolayer): HIGH
7 | CC(C)C[C@H](NC(=O)CNC(=O)[C@H](CC(C)C)NC(=O)[C@H](CCC(N)=O)NC(=O)CNC(=O)[C@@H]1C[C@@H](O)CN1)C(=O)N[C@@H](C)C(=O)NCC(=O)N1CCC[C@H]1C(=O)N[C@@H](CCCCN)C(=O)NCCOCCN [YDE-093] (H-[Hyp]GQLGLAGPK-{NH(CH2)2O(CH2)2NH2}) | 10000 µg/mL (≈ 9.62 mM) |  | attenuation of IL-6 release; also recorded: attenuate Poly I:C induced of IL-6 cytokine release in a dose dependent manner |  | Poly I:C induced IL-6 cytokine release (in words) [3]: attenuate Poly I:C induced of IL-6 cytokine release in a dose dependent manner; tested concentrations with significant attenuation of IL-6 cytokine release [3]: 30 μM, 10 μM, 1 μM and 0.1 μM
8 | CC(C)C[C@H](NC(=O)CNC(=O)[C@H](CC(=O)O)NC(=O)[C@H](CCC(N)=O)NC(=O)CNC(=O)[C@@H]1C[C@@H](O)CN1)C(=O)N[C@@H](C)C(=O)O [YDE-094, O*GQDGLA] (H-[Hyp]GQDGLA-OH) |  | 10000 µg/mL (≈ 14.9 mM) |  |  | 
9 | CC(C)C[C@H](NC(=O)CNC(=O)[C@H](CC(C)C)NC(=O)[C@H](CCC(N)=O)NC(=O)CNC(=O)[C@@H]1C[C@@H](O)CN1)C(=O)N[C@@H](C)C(=O)NCC(=O)N1CCC[C@H]1C(=O)N[C@@H](CCCCN)C(=O)NCCOCCN [YDE-096] (H-[Hyp]GQLGLAGPK-{NH(CH2)2O(CH2)2NH2}) |  | 10000 µg/mL (≈ 9.62 mM) | attenuation of IL-6 release; also recorded: attenuate Poly I:C induced of IL-6 cytokine release in a dose dependent manner |  | Poly I:C induced IL-6 cytokine release (in words) [3]: attenuate Poly I:C induced of IL-6 cytokine release in a dose dependent manner; tested concentrations with significant attenuation of IL-6 cytokine release [3]: 30 μM, 10 μM, 1 μM and 0.1 μM
10 | CC(=O)[C@@H]1CCCN1C(=O)CNC(=O)[C@H](C)NC(=O)[C@H](CC(C)C)NC(=O)CNC(=O)[C@H](CC(C)C)NC(=O)[C@H](CCC(N)=O)NC(=O)CNC(=O)[C@@H]1C[C@@H](O)CN1 [YDE-100] (H-[Hyp]GQLGLAG-{Pyrrolidin1yl(2S-Ac)}) | 10000 µg/mL (≈ 12.2 mM) |  | attenuation of IL-6 release | 30 μM, and 10 μM | Poly I:C induced IL-6 cytokine release (in words) ([2]; listed as YDE100): attenuate Poly I:C induced IL-6 cytokine release in a dose dependent manner
11 | CCN(C)C(=O)[C@@H]1CCCN1C(=O)CNC(=O)[C@H](C)NC(=O)[C@H](CC(C)C)NC(=O)CNC(=O)[C@H](CC(C)C)NC(=O)[C@H](CCC(N)=O)NC(=O)CNC(=O)[C@@H]1C[C@@H](O)CN1 [YDE-103] (H-[Hyp]GQLGLAGP-NMeEt) |  |  | attenuation of IL-6 release |  | tested concentrations with significant attenuation of IL-6 cytokine release ([2]; listed as YDE103): 30 μM, 10 μM, 1 μM and 0.1 μM; Poly I:C induced IL-6 cytokine release (in words) ([2]; listed as YDE103): attenuate Poly I:C induced IL-6 cytokine release in a dose dependent manner
